According to the NIST ThermoML archive (doi:10.1021/je060148j):
± gives the expanded uncertainty stated by the source.

Details: Liquid, Closed cell (Static) method

COC [dimethyl ether]
Details | vapor or sublimation pressure [kPa]
219.15 K | 22.3 ± 2
221.13 K | 25.2 ± 2
223.11 K | 28.3 ± 2
224.88 K | 31.5 ± 2
226.88 K | 35.4 ± 2
228.85 K | 39.5 ± 2
230.86 K | 43.9 ± 2
232.86 K | 48.7 ± 2
234.85 K | 54.1 ± 2
236.85 K | 59.8 ± 2
239.14 K | 66.3 ± 2
241.14 K | 73.2 ± 2
244.14 K | 84 ± 2
247.13 K | 96.1 ± 2
249.13 K | 104.9 ± 2
251.14 K | 114.3 ± 2
255.13 K | 135.1 ± 2
257.12 K | 146.6 ± 2
259.14 K | 159 ± 2
261.13 K | 171.8 ± 2
263.13 K | 185.6 ± 2
265.13 K | 199.8 ± 2
267.13 K | 215.5 ± 2.1
269.13 K | 231.8 ± 2.1
271.13 K | 248.9 ± 2.1
273.13 K | 266.8 ± 2.1
275.04 K | 285.1 ± 2.1
277.02 K | 305 ± 2.1
279.02 K | 326.4 ± 2.1
281.02 K | 348.8 ± 2.1
283.02 K | 372.3 ± 2.1
285.01 K | 397 ± 2.1
287 K | 422.8 ± 2.2
288.99 K | 449.8 ± 2.2
290.99 K | 478.4 ± 2.2
293.08 K | 508.9 ± 2.2
295.07 K | 540 ± 2.2
297.07 K | 573 ± 2.3
299.08 K | 606.9 ± 2.3
301.11 K | 643.1 ± 2.3
303.08 K | 680.2 ± 2.4
305.07 K | 718.4 ± 2.4
307.07 K | 758.8 ± 2.4
309.06 K | 800.7 ± 2.5
311.07 K | 844.2 ± 2.5
313.06 K | 889.5 ± 2.5
315.06 K | 936.6 ± 2.6
317.04 K | 985.3 ± 2.6
319.03 K | 1036 ± 2.7
321.03 K | 1088.7 ± 2.8
323.02 K | 1143.3 ± 2.8
325.02 K | 1200.6 ± 2.9
327.13 K | 1262.3 ± 2.9
329.02 K | 1319.9 ± 3
331.11 K | 1385.3 ± 3.1
333.11 K | 1450.6 ± 3.2
335.11 K | 1518.8 ± 3.3
337.1 K | 1588.4 ± 3.3
339.1 K | 1660.3 ± 3.4
341.08 K | 1733.3 ± 3.5
343.09 K | 1811.3 ± 3.6
345.09 K | 1891.2 ± 3.7
347.08 K | 1972.8 ± 3.8
349.08 K | 2057.4 ± 4
351.07 K | 2144.3 ± 4.1
353.05 K | 2232.7 ± 4.2
355.05 K | 2326 ± 4.3
357.05 K | 2421.9 ± 4.4
359.05 K | 2520.3 ± 4.6
361.04 K | 2621.5 ± 4.7
